Laboratory results from patent publication EP0769966B1, “BIOTIN COMPOUNDS FOR TARGETTING TUMORS AND SITES OF INFECTION” (priority 1994, dated 1995).

Tests used:
[1] = biological target: avidin (Gallus gallus, UniProt P02701); assay: Competitive binding of F-18 labeled biotin analogs to avidin vs. unlabeled d-biotin
Experimental: The two biotin derivatives were evaluated for binding to avidin in the presence of varying concentrations of unlabeled d-biotin as described in Example 3.
A preliminary measure of the binding characteristics of the fluoro analogs of biotin were performed. The binding of these novel F-18 labeled biotin analogs to avidin was evaluated by measuring the binding of F-18 labeled biotin analogs to avidin in the presence of varying concentrations of unlabeled d-biotin. Serial dilutions of d-biotin were prepared in phopshate buffered saline pH 7.4 (PBS). A fixed quantity of the no-carrier added F-18 labeled biotin 1 or 2 (10- 100µCi) were mixed with each d-biotin dilution so that the range of concentrations of cold biotin were 3 orders of magnitude greater and less than the concentration of avidin ([…]). A 200 µl aliquot of the F-18 biotin/cold biotin solution was added to 200 µl of avidin in PBS. The solution was vortexed and allowed to incubate for 1 hour after which time a 5 µl aliquot of the solution was analysed by instant thin layer chromatography (Gelman ILTC-SG) using 0.1 M acetate buffer pH 6.0. In this chromatographic system the F-18 biotin analogs bound to avidin origin while the unbound F-18-biotin analogs move to the solvent front. Percent binding of F-18 biotin analog was calculated as [(counts at origin/total counts)* 100]. For each F-18-biotin analog potential impurities remaining at the origin were determined and the results of binding corrected accordingly.

[2] = in vivo; format: in vivo, male Sprague-Dawley rats; details: rat, in vivo, iv
Experimental: (§1) A clinical isolate of E. Coli was stored at -70°C in a freezing media containing 20% glycerol and 80% dextrose phosphate until use. Aliquots of bacteria were defrosted and colony counts performed on serial dilutions grown overnight on BBL Brucella agar plates. Based on the colony count, freshly thawed bacteria suspensions were washed and diluted with saline to a final concentration of […]. Aliquots (0.1 ml) of bacterial suspensions (8 x 10^9 organisms/ml) were injected into the right thigh muscle of 48 male Sprague-Dawley rats (125-150 g, Charles River Breeding Laboratories, Burlington, MD). Twenty-four rats were used for each labeled biotin compound. Twenty-four hours after injection, swelling in the right thigh readily appeared, and 24 rats each received 1.67 mg of avidin in saline via the tail vein. […] Rats were sacrificed at 5 and 60 min. post-injection, six rats per time point. Blood samples were obtained by cardiac puncture. Syringes were weighed before and after injection to determine the volume delivered. The activity per unit volume was obtained from standards. A total of eleven different tissues were excised, weighed, and counted. These tissues included blood; bone; lung; liver; adrenal; spleen; kidneys; heart; muscle (thigh); teste; and infected muscle (thigh). The excised tissues were blotted, weighed, and counted in a scintillation well counter. The raw counts were decay corrected. The results were expressed as percent injected dose per gram, and infection-to-normal muscle ratios (mean ± s.d.). The biodistribution results were evaluated by analysis of variance (one-way ANOVA). The effect of avidin […] on biodistribution was evaluated by student t-test.

[3] = tested on: E. coli infected rats; assay: in vivo; format: in vivo, male Sprague-Dawley rats; details: for Infected to normal tissue ratio, Norm mus: infection/normal muscle
Experimental: as §1

[4] = Without Avidin, 60 Min., listed as 18F-biotin1
[5] = Without Avidin, 60 Min., listed as 18F-labeled biotin 1

Sequence of avidin (P02701 25-152): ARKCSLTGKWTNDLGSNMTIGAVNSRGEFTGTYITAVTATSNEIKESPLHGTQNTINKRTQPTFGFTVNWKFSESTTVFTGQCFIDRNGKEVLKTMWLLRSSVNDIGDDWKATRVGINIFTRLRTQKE

- Bmax ([1]; scatchard transformation of displacement curve, cold d-biotin): 5.57 x 10 ^-16 M
- tissue uptake at 5 min ([2]; Tissue distribution, Adrenal): 1 ± 0.2 %ID/g
- tissue uptake at 1 h ([2]; Tissue distribution, Adrenal): 0.09 ± 0.02 %ID/g
- tissue uptake at 5 min ([2]; Tissue distribution, Blood): 1.07 ± 0.31 %ID/g
- tissue uptake at 1 h ([2]; Tissue distribution, Blood): 0.14 ± 0.02 %ID/g
- tissue uptake at 5 min ([2]; Tissue distribution, Bone): 1.1 ± 0.16 %ID/g
- tissue uptake at 1 h ([2]; Tissue distribution, Bone): 2.94 ± 0.37 %ID/g
- tissue uptake at 5 min ([2]; Tissue distribution, Heart): 1 ± 0.34 %ID/g
- tissue uptake at 1 h ([2]; Tissue distribution, Heart): 0.14 ± 0.02 %ID/g
- tissue uptake at 5 min ([2]; Tissue distribution, Inf mus): 1.22 ± 0.36 %ID/g
- tissue uptake at 1 h ([2]; Tissue distribution, Inf mus): 0.43 ± 0.1 %ID/g
- tissue uptake at 5 min ([2]; Tissue distribution, Kidney): 4.78 ± 0.8 %ID/g
- tissue uptake at 1 h ([2]; Tissue distribution, Kidney): 0.23 ± 0.05 %ID/g
- tissue uptake at 5 min ([2]; Tissue distribution, Liver): 1.39 ± 0.16 %ID/g
- tissue uptake at 1 h ([2]; Tissue distribution, Liver): 0.13 ± 0.03 %ID/g
- tissue uptake at 5 min ([2]; Tissue distribution, Lung): 1.21 ± 0.13 %ID/g
- tissue uptake at 1 h ([2]; Tissue distribution, Lung): 0.11 ± 0.02 %ID/g
- tissue uptake at 5 min ([2]; Tissue distribution, Norm mus): 0.83 ± 0.09 %ID/g
- tissue uptake at 1 h ([2]; Tissue distribution, Norm mus): 0.078 ± 0.02 %ID/g
- tissue uptake at 5 min ([2]; Tissue distribution, Spleen): 1.4 ± 0.3 %ID/g
- tissue uptake at 1 h ([2]; Tissue distribution, Spleen): 0.14 ± 0.03 %ID/g
- tissue uptake at 5 min ([2]; Tissue distribution, Teste): 0.57 ± 0.02 %ID/g
- tissue uptake at 1 h ([2]; Tissue distribution, Teste): 0.16 ± 0.03 %ID/g
- tissue uptake at 1 h ([2]; ^18F bone uptake (defluorination in vivo)): 2.94 ± 0.37 %ID/g
- accumulation in kidney relative to blood ([3]; rat, in vivo, 5 min): 4.5 fold
- Tissue distribution, Adrenal ([3]; rat, in vivo, iv, 5 min): 0.85±0.13 percent injected dose per gram
- Tissue distribution, Blood ([3]; rat, in vivo, iv, 5 min): 1.13±0.11 percent injected dose per gram
- Tissue distribution, Bone ([3]; rat, in vivo, iv, 5 min): 1.19±0.23 percent injected dose per gram
- Tissue distribution, Heart ([3]; rat, in vivo, iv, 5 min): 0.99±0.12 percent injected dose per gram
- Tissue distribution, Inf mus ([3]; rat, in vivo, iv, 5 min): 0.99±0.11 percent injected dose per gram
- Tissue distribution, Kidney ([3]; rat, in vivo, iv, 5 min): 4.01±0.77 percent injected dose per gram
- Tissue distribution, Liver ([3]; rat, in vivo, iv, 5 min): 1.29±0.17 percent injected dose per gram
- Tissue distribution, Norm mus ([3]; rat, in vivo, iv, 5 min): 0.82±0.12 percent injected dose per gram
- Tissue distribution, Spleen ([3]; rat, in vivo, iv, 5 min): 1.52±0.32 percent injected dose per gram
- Tissue distribution, Teste ([3]; rat, in vivo, iv, 5 min): 0.50±0.11 percent injected dose per gram
- Tissue distribution, Blood ([3]; rat, in vivo, iv, 1 h): 0.19±0.04 percent injected dose per gram
- Tissue distribution, Bone ([3]; rat, in vivo, iv, 1 h): 2.29±0.14 percent injected dose per gram
- Tissue distribution, Inf mus ([3]; rat, in vivo, iv, 1 h): 0.65±0.14 percent injected dose per gram
- Tissue distribution, Kidney ([3]; rat, in vivo, iv, 1 h): 0.32±0.04 percent injected dose per gram
- Tissue distribution, Norm mus ([3]; rat, in vivo, iv, 1 h): 0.10±0.02 percent injected dose per gram
- Tissue distribution, Spleen ([3]; rat, in vivo, iv, 1 h): 0.19±0.0 percent injected dose per gram
- Tissue distribution, Teste ([3]; rat, in vivo, iv, 1 h): 0.19±0.04 percent injected dose per gram
SMILES: O=C(CCCC[C@@H]1SC[C@@H]2NC(=O)N[C@@H]21)NCCC[18F] [Biotin 1]
- binding to avidin ([1]; in the presence of varying concentrations of unlabeled d-biotin): bind to avidin and could be displaced by cold d-biotin
- Infected to normal tissue ratio, Adrenal ([3]; With Avidin, 5 Min.): 1.20±0.22
- Infected to normal tissue ratio, Blood ([3]; With Avidin, 5 Min.): 0.90±0.14
- Infected to normal tissue ratio, Heart ([3]; With Avidin, 5 Min.): 1.08±0.18
- Infected to normal tissue ratio, Kidney ([3]; With Avidin, 5 Min.): 0.28±0.06
- Infected to normal tissue ratio, Liver ([3]; With Avidin, 5 Min.): 0.83±0.16
- Infected to normal tissue ratio, Lung ([3]; With Avidin, 5 Min.): 1.06±0.30
- Infected to normal tissue ratio, Spleen ([3]; With Avidin, 5 Min.): 0.64±0.11
- Infected to normal tissue ratio, Teste ([3]; With Avidin, 5 Min.): 2.00±0.37
- Infected to normal tissue ratio, bone ([3]; With Avidin, 5 Min.): 0.90±0.18
- Infected to normal tissue ratio, Norm mus ([3]; With Avidin, 5 Min.): 1.24±0.20
- Infected to normal tissue ratio, Adrenal ([3]; With Avidin, 60 Min.): 5.74±1.14
- Infected to normal tissue ratio, Blood ([3]; With Avidin, 60 Min.): 3.75±0.75
- Infected to normal tissue ratio, Heart ([3]; With Avidin, 60 Min.): 7.59±1.34
- Infected to normal tissue ratio, Kidney ([3]; With Avidin, 60 Min.): 2.04±0.35
- Infected to normal tissue ratio, Liver ([3]; With Avidin, 60 Min.): 4.05±0.65
- Infected to normal tissue ratio, Lung ([3]; With Avidin, 60 Min.): 4.83±0.91
- Infected to normal tissue ratio, Spleen ([3]; With Avidin, 60 Min.): 3.34±0.72
- Infected to normal tissue ratio, Teste ([3]; With Avidin, 60 Min.): 3.35±0.56
- Infected to normal tissue ratio, bone ([3]; With Avidin, 60 Min.): 0.28±0.07
- Infected to normal tissue ratio, Norm mus ([3]; With Avidin, 60 Min.): 6.39± 0.96
- Infected to normal tissue ratio, Norm mus ([3]; With Avidin, 60 Min., listed as 18F-labeled biotin 1): 6.39±0.96
- Infected to normal tissue ratio, Adrenal ([3]; Without Avidin, 5 Min.): 1.06±0.24
- Infected to normal tissue ratio, Blood ([3]; Without Avidin, 5 Min.): 1.30±0.86
- Infected to normal tissue ratio, Heart ([3]; Without Avidin, 5 Min.): 1.21±0.26
- Infected to normal tissue ratio, Kidney ([3]; Without Avidin, 5 Min.): 0.26±0.05
- Infected to normal tissue ratio, Liver ([3]; Without Avidin, 5 Min.): 0.89±0.25
- Infected to normal tissue ratio, Lung ([3]; Without Avidin, 5 Min.): 1.00±0.23
- Infected to normal tissue ratio, Spleen ([3]; Without Avidin, 5 Min.): 0.94±0.49
- Infected to normal tissue ratio, Teste ([3]; Without Avidin, 5 Min.): 2.14±0.60
- Infected to normal tissue ratio, bone ([3]; Without Avidin, 5 Min.): 1.06±0.33
- Infected to normal tissue ratio, Norm mus ([3]; Without Avidin, 5 Min.): 1.54±0.69
- Infected to normal tissue ratio, Adrenal ([3]; Without Avidin, 60 Min.): 5.20±1.20
- Infected to normal tissue ratio, Heart ([3]; Without Avidin, 60 Min.): 6.21±0.57
- Infected to normal tissue ratio, Lung ([3]; Without Avidin, 60 Min.): 4.21±0.69
- Infected to normal tissue ratio, Spleen ([3]; Without Avidin, 60 Min.): 2.98±0.30
- Infected to normal tissue ratio, Teste ([3]; Without Avidin, 60 Min.): 2.87±0.50
- Infected to normal tissue ratio, bone ([3]; Without Avidin, 60 Min.): 0.16±0.04
- Infected to normal tissue ratio, Norm mus ([3]; Without Avidin, 60 Min.): 6.08 ± 1.12
- Infected to normal tissue ratio, Norm mus ([3]; Without Avidin, 60 Min., listed as 18F-Biotin 1): 6.1±1.1
- Infected to normal tissue ratio, Norm mus [3, 4]: 6.1
- Infected to normal tissue ratio, Norm mus [3, 5]: 6.08±1.12
- Infected to normal tissue ratio, Norm mus ([3]; Without Avidin, 60 Min., listed as biotin 1): 6.08± 1.12
- Infected to normal tissue ratio, Blood [3, 4]: 3.1
- Infected to normal tissue ratio, Kidney [3, 4]: 2.0
- Infected to normal tissue ratio, Liver [3, 4]: 3.5
- Infected to normal tissue ratio, Blood [3, 5]: 3.09±0.54
- Infected to normal tissue ratio, Kidney [3, 5]: 1.96±0.24
- Infected to normal tissue ratio, Liver [3, 5]: 3.48±0.67
